Here are results for 2 substances from patent US20250059610A1, “METHODS OF TREATING TUMOR” (priority 2017, published 2025).

Assay [1] has as its system recurrent small cell lung cancer (SCLC). In words: Clinical trial of nivolumab alone or with ipilimumab in SCLC, exploratory TMB analysis. In kind it is in vivo, human. The text has this: Subjects were selects who had previously been diagnosed with SCLC, and who had previously received at least one prior platinum-containing regimen (FIG. 23).
The primary objective was to measure the objective response rate (ORR) by per RECIST v1.1. Secondary objectives included monitoring safety, overall survival (OS), progression free survival (PFS), and duration of response (DOR). Prespecified exploratory objectives included biomarker analysis and health status using the EQ-5D instrument.
TMB was determined by whole exome sequencing, using an Illumina HiSeq 2500 using 2×100-bp paired-end reads, and calculated as the total number of nonsynonymous missense mutations in the tumor. For exploratory analyses, patients were divided into 3 subgroups based on TMB tertile.

For assay [2], the system named is NSCLC with ≥50% PD-L1 expression. Conditions: first-line; cited from earlier work.

As to “ipilimumab: fully human, IgG1 monoclonal antibody that blocks the binding of CTLA-4 to its B7 ligands”, the ORR is reported as around 46.2% in assay [1] (high TMB), around 22.2% in assay [1] (low TMB) and around 16.0% in assay [1] (medium TMB).
As to pembrolizumab, in assay [2], the ORR is 45% and the “median PFS” value is listed as 10.3 months.
